# Experimental data as given in ChEMBL document CHEMBL1201862, “PubChem BioAssay data set” (2004).
#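 A five-concentration, 48-hour dose response in 96-well plates underlies each endpoint, interpolated linearly between surrounding concentrations. At the GI50, growth is halved.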 Activity calls are given as the source filed them. No stated cut-off is given here; in the data, active = GI50 up to about 1.1 µM and inactive = higher.
# Columns and labels:
# Assay in all cases: growth of human tumour cells (NCI), 48 h
# NCI-H23 = test system: NCI-H23
# OVCAR-8 = test system: OVCAR-8
# Malme-3M = test system: Malme-3M
# IGROV-1 = test system: IGROV-1
# HCT-116 = test system: HCT-116
# RXF 393 = test system: RXF 393
# SW-620 = test system: SW-620
# U-251 = test system: U-251
# CAKI-1 = test system: CAKI-1
# HOP-62 = test system: HOP-62
# KM12 = test system: KM12
# SK-OV-3 = test system: SK-OV-3
# MOLT-4 = test system: MOLT-4
# TK-10 = test system: TK-10
# SR = test system: SR
# OVCAR-5 = test system: OVCAR-5
# SK-MEL-28 = test system: SK-MEL-28
# SK-MEL-2 = test system: SK-MEL-2
SMILES,GI50 (NCI-H23),GI50 (OVCAR-8),GI50 (Malme-3M),GI50 (IGROV-1),GI50 (HCT-116),GI50 (RXF 393),GI50 (SW-620),GI50 (U-251),GI50 (CAKI-1),GI50 (HOP-62),GI50 (KM12),GI50 (SK-OV-3),GI50 (MOLT-4),GI50 (TK-10),GI50 (SR),GI50 (OVCAR-5),GI50 (SK-MEL-28),GI50 (SK-MEL-2)
CC(=O)C1(O)CC2(c3ccccc3)C(=O)C1(c1ccccc1)C(c1ccccc1)=C2c1ccccc1 (stereo not given),36.6 µM (inactive),> 100 µM (inactive),> 100 µM (inactive),> 100 µM (inactive),30.9 µM (inactive),> 100 µM (inactive),> 100 µM (inactive),81.3 µM (inactive),> 100 µM (inactive),> 100 µM (inactive),> 100 µM (inactive),> 100 µM (inactive),39.6 µM (inactive),> 100 µM (inactive),85.1 µM (inactive),49.1 µM (inactive),–,–
O=S1(=O)OCCOS(=O)(=O)C1(Br)Cc1ccccc1,> 100 µM (inactive),> 100 µM (inactive),> 100 µM (inactive),> 100 µM (inactive),> 100 µM (inactive),> 100 µM (inactive),> 100 µM (inactive),> 100 µM (inactive),–,> 100 µM (inactive),–,> 100 µM (inactive),> 100 µM (inactive),> 100 µM (inactive),> 100 µM (inactive),> 100 µM (inactive),> 100 µM (inactive),> 100 µM (inactive)
CN1CCCCC(C(O)(c2ccccc2)c2ccccc2)C1=O (stereo not given),> 100 µM (inactive),> 100 µM (inactive),> 100 µM (inactive),> 100 µM (inactive),24.8 µM (inactive),69 µM (inactive),11.9 µM (inactive),> 100 µM (inactive),–,> 100 µM (inactive),> 100 µM (inactive),> 100 µM (inactive),> 100 µM (inactive),> 100 µM (inactive),> 100 µM (inactive),> 100 µM (inactive),> 100 µM (inactive),> 100 µM (inactive)
CC1=CC(=O)N2C(OC[C@@H]2c2ccccc2)O1 (stereo not given in full),> 100 µM (inactive),> 100 µM (inactive),> 100 µM (inactive),> 100 µM (inactive),> 100 µM (inactive),> 100 µM (inactive),> 100 µM (inactive),> 100 µM (inactive),> 100 µM (inactive),> 100 µM (inactive),> 100 µM (inactive),> 100 µM (inactive),> 100 µM (inactive),> 100 µM (inactive),> 100 µM (inactive),–,> 100 µM (inactive),> 100 µM (inactive)
CC(C)(C)C(=C[S+]([O-])/N=C/c1ccccc1)C(C)(C)C (stereo not given),48 µM (inactive),59.4 µM (inactive),22.3 µM (inactive),25.8 µM (inactive),30.4 µM (inactive),26.7 µM (inactive),50 µM (inactive),25.1 µM (inactive),30 µM (inactive),37.8 µM (inactive),44.6 µM (inactive),26.6 µM (inactive),14 µM (inactive),> 100 µM (inactive),24.7 µM (inactive),48.6 µM (inactive),> 100 µM (inactive),15.9 µM (inactive)
CN(C)c1ccccc1CC(c1c[nH]c2ccccc12)c1c[nH]c2ccccc12,6.85 µM (inactive),11.2 µM (inactive),17.1 µM (inactive),15.8 µM (inactive),11.2 µM (inactive),7.91 µM (inactive),6.7 µM (inactive),12.1 µM (inactive),4.94 µM (inactive),6.62 µM (inactive),4.36 µM (inactive),19.3 µM (inactive),4.35 µM (inactive),16.2 µM (inactive),5.46 µM (inactive),16.9 µM (inactive),–,14.8 µM (inactive)
C=C1C(=O)OC2C1CC[C@H](C)C13OC(=O)CC1[C@@]23C (stereo not given in full),> 100 µM (inactive),> 100 µM (inactive),> 100 µM (inactive),> 100 µM (inactive),> 100 µM (inactive),> 100 µM (inactive),> 100 µM (inactive),> 100 µM (inactive),> 100 µM (inactive),–,> 100 µM (inactive),> 100 µM (inactive),> 100 µM (inactive),> 100 µM (inactive),> 100 µM (inactive),> 100 µM (inactive),> 100 µM (inactive),> 100 µM (inactive)
COc1ccc(-c2cc(=O)c3cc(O)ccc3o2)c(OC)c1OC,36.8 µM (inactive),–,66.5 µM (inactive),42.8 µM (inactive),26.5 µM (inactive),28.2 µM (inactive),40.8 µM (inactive),–,34.5 µM (inactive),42.7 µM (inactive),28.2 µM (inactive),35.3 µM (inactive),–,39.4 µM (inactive),12.7 µM (inactive),20.2 µM (inactive),53.7 µM (inactive),28.3 µM (inactive)
N=C(N)NS(=O)(=O)c1ccc(Nc2c3ccccc3nc3c(C(=O)Nc4ccc(S(N)(=O)=O)cc4)ccc(Cl)c23)cc1,> 100 µM (inactive),58.2 µM (inactive),> 100 µM (inactive),> 100 µM (inactive),> 100 µM (inactive),> 100 µM (inactive),> 100 µM (inactive),> 100 µM (inactive),> 100 µM (inactive),> 100 µM (inactive),> 100 µM (inactive),> 100 µM (inactive),> 100 µM (inactive),> 100 µM (inactive),> 100 µM (inactive),> 100 µM (inactive),> 100 µM (inactive),–
CCOC(=O)c1c(-c2[nH]c(C(=O)OCc3ccccc3)c(C)c2C(=O)OCC)[nH]c(C(=O)OCc2ccccc2)c1C,–,> 100 µM (inactive),> 100 µM (inactive),> 100 µM (inactive),> 100 µM (inactive),19.9 µM (inactive),> 100 µM (inactive),36 µM (inactive),> 100 µM (inactive),> 100 µM (inactive),–,> 100 µM (inactive),> 100 µM (inactive),> 100 µM (inactive),> 100 µM (inactive),> 100 µM (inactive),> 100 µM (inactive),> 100 µM (inactive)
CC1=C(C(=O)Nc2ccccc2)C(c2cccc3ccccc23)C(C(=O)Nc2ccccc2)=C(C)N1,21.7 µM (inactive),16.7 µM (inactive),18.8 µM (inactive),25.6 µM (inactive),15.4 µM (inactive),14.4 µM (inactive),22.4 µM (inactive),16.5 µM (inactive),15.6 µM (inactive),18.7 µM (inactive),–,17.1 µM (inactive),0.767 µM (active),31.5 µM (inactive),3.11 µM (inactive),23 µM (inactive),18 µM (inactive),17 µM (inactive)
CC1C2C=C(O)C(=O)C(C2=O)C1c1ccccc1 (stereo not given),> 100 µM (inactive),> 100 µM (inactive),> 100 µM (inactive),> 100 µM (inactive),–,> 100 µM (inactive),> 100 µM (inactive),> 100 µM (inactive),> 100 µM (inactive),> 100 µM (inactive),> 100 µM (inactive),> 100 µM (inactive),> 100 µM (inactive),> 100 µM (inactive),> 100 µM (inactive),> 100 µM (inactive),> 100 µM (inactive),> 100 µM (inactive)
